According to publication PMC5308787, “Isoprenoid-phospholipid conjugates as potential therapeutic agents: Synthesis, characterization and antiproliferative studies” (PLoS ONE, 2017):

Legend:
[1] = tested on: MV4-11 (human biphenotypic B myelomonocytic leukaemia); test: Antiproliferative MTT assay, 72 h exposure; type: cell-based
Method: (§1) The biological studies were performed in vitro using human cancer cell lines: MV4-11 (human biphenotypic B myelomonocytic leukaemia), A-549 (non-small cell lung cancer), MCF-7 (breast cancer), LoVo (colon cancer), LoVo/DX (colon cancer drug resistant), HepG2 (liver cancer) and BALB/3T3 (normal mice fibroblasts). These lines were obtained from American Type Culture Collection (Rockville, Maryland, U.S.A.). The cell line is being maintained in the Institute of Immunology and Experimental Therapy, Wroclaw, Poland. All cell lines were grown at 37°C with 5% CO2 humidified atmosphere and were cultured in cultured medium according to the method described before.
(§2) Prior to usage, the compounds were dissolved in DMSO or in mixture of 99.8% ethanol and DMSO (1:1) to the concentration of 25 or 50 mM, and subsequently diluted in culture medium to reach the required concentrations (ranging from 5 to 625 μM).
(§3) Twenty-four hours prior to the addition of tested compounds, the cells were plated in 96-well plates (Sarstedt, Germany) at a density of 1 × 10^4 cells per well in 100 μL of culture medium. The assay was performed after 72 h of exposure to varying concentrations of the tested agents. The in vitro cytotoxic effect of tested agents was examined using the MTT (for MV4-11 cells) or SRB assay which were described previously. Each compound in each concentration was tested in triplicate in a single experiment, which was repeated 3–5 times.
(§4) The results of antiproliferative activity were given as IC50 values. Using this parameter we calculated also the resistance indexes (RI) dividing the IC50 values of selected compounds estimated for drug resistant cell LOVO/DX line by respective values designated for drug sensitive LoVo line. According to Harker et al. three categories of the cells could be distinguished: (a) the cells are drug-sensitive—if the ratio approaches 0–2; (b) the cells are moderately drug-resistant—if the ratio ranges from 2 to 10; (c) the cells are markedly drug-resistant—if the ratio is higher than 10.

[2] = tested on: A-549 (non-small cell lung cancer); test: Antiproliferative SRB assay, 72 h exposure; type: cell-based, human; conditions: n.a. = no activity in concentration of 5, 25, 125, 625 μM
Method: as §1, §2, §3, §4

HepG2 (liver cancer) = test: Antiproliferative SRB assay, 72 h exposure; type: cell-based, human; conditions: n.a. = no activity in concentration of 5, 25, 125, 625 μM
Method: as §1, §2, §3, §4

LoVo (colon cancer) = test: Antiproliferative SRB assay, 72 h exposure; type: cell-based, human; conditions: SRB, 72 h, mean ± SD of 3–5 experiments, n.a. = no activity in concentration of 5, 25, 125, 625 μM
Method: as §1, §2, §3, §4

[3] = tested on: LoVo/DX (colon cancer drug resistant); test: Antiproliferative SRB assay, 72 h exposure; type: cell-based, human; conditions: mean ± SD of 3–5 experiments, n.a. = no activity in concentration of 5, 25, 125, 625 μM
Method: as §1, §2, §3, §4

MCF-7 (breast cancer) = test: Antiproliferative SRB assay, 72 h exposure; type: cell-based, human; conditions: n.a. = no activity in concentration of 5, 25, 125, 625 μM
Method: as §1, §2, §3, §4

[4] = tested on: BALB/3T3 (normal mice fibroblasts); test: Antiproliferative SRB assay, 72 h exposure; type: cell-based; conditions: n.a. = no activity in concentration of 5, 25, 125, 625 μM
Method: as §1, §2, §3, §4

[5] = tested on: drug resistant LOVO/DX line vs drug sensitive LoVo line; test: Resistance index (RI): IC50 LOVO/DX divided by IC50 LoVo; type: cell-based, human; conditions: RI = IC50 resistant line / IC50 non-resistant line; 0<RI<2 able to overcome drug resistance; 2<RI<10 moderate ability; RI>10 no influence
Source text: as §4

[6] = Homo sapiens, MV4-11, mean ± SD of 3–5 independent experiments
[7] = Homo sapiens, A549, mean ± SD of 3–5 experiments
[8] = Homo sapiens, HepG2, mean ± SD of 3–5 experiments
[9] = Homo sapiens, MCF7, mean ± SD of 3–5 experiments
[10] = Mus musculus, BALB/3T3, mean ± SD of 3–5 experiments
[11] = mean ± SD of 3–5 independent experiments

Compound	IC50 [1, 6] [µM]	IC50 [2, 7] [µM]	IC50 (HepG2 (liver cancer); [8]) [µM]	IC50 (LoVo (colon cancer); Homo sapiens, LoVo) [µM]	IC50 ([3]; Homo sapiens, LoVo/DX) [µM]	IC50 (MCF-7 (breast cancer); [9]) [µM]	IC50 [4, 10] [µM]	Resistance index (RI) [5]	IC50 [1, 11] [µM]	IC50 ([2]; mean ± SD of 3–5 experiments) [µM]	IC50 (HepG2 (liver cancer); mean ± SD of 3–5 experiments) [µM]	IC50 (LoVo (colon cancer)) [µM]	IC50 [3] [µM]	IC50 (MCF-7 (breast cancer); mean ± SD of 3–5 experiments) [µM]	IC50 ([4]; mean ± SD of 3–5 experiments) [µM]
C=CC(C)(CC/C=C(\C)CCC=C(C)C)CC(=O)O[C@H](COC(=O)CCCCCCCCCCCCCCC)COP(=O)([O-])OCC[N+](C)(C)C (stereo partly drawn) [Compound 7b, (2'R)-1’-palmitoyl-2’-[(3R,6E)-3,7,11-trimethyl-3-vinyldodeca-6,10-dienyl]-sn-glycero-3’-phosphocholine + (2'R)-1’-palmitoyl-2’-[(3S,6E)-3,7,11-trimethyl-3-vinyldodeca-6,10-dienyl]-sn-glycero-3’-phosphocholine]	50.3 ± 5.37	111 ± 12.9	272 ± 24.7	251 ± 22.7	486 ± 17.4	98.7 ± 15.6	518 ± 69.8	1.16	–	–	–	–	–	–	–
C=CC(C)(CCCC(C)CCCC(C)CCCC(C)C)CC(=O)OC[C@@H](O)COP(=O)([O-])OCC[N+](C)(C)C (stereo partly drawn) [Compound 8d]	47.4 ± 6.35	–	–	–	–	–	–	–	–	–	–	–	–	–	–
N.N.[Cl][Pt][Cl] [Cisplatin, cisplatin, reference compound]	–	–	–	–	–	–	–	–	1.3 ± 0.47	8.6 ± 0.7	2.38 ± 0.64	2.56 ± 0.35	3.17 ± 0.2	8.1 ± 0.03	4.2 ± 1.1
C=CC(C)(CCCC(C)CCCC(C)CCCC(C)C)CC(=O)OC[C@H](COP(=O)([O-])OCC[N+](C)(C)C)OC(=O)CCCCCCCCCCCCCCC (stereo partly drawn) [Compound 9d]	259 ± 37	–	–	–	–	–	–	–	–	–	–	–	–	–	–
C=CC(C)(CC/C=C(\C)CCC=C(C)C)CC(=O)OC[C@@H](O)COP(=O)([O-])OCC[N+](C)(C)C (stereo partly drawn) [Compound 8b]	112 ± 39.8	260 ± 33.6	344 ± 40.9	241 ± 15.1	280 ± 44.4	250 ± 45.2	297 ± 18.6	1.99	–	–	–	–	–	–	–
C=CC(C)(CCC=C(C)C)CC(=O)O (stereo not drawn) [1 (GERA), 3,7-dimethyl-3-vinyloct-6-enoic acid]	256 ± 86.1	301 ± 66.9	517 ± 98.3	329 ± 54.5	281 ± 13.6	310 ± 84	–	0.85	–	–	–	–	–	–	–
C=CC(C)(CCCC(C)CCCC(C)CCCC(C)C)CC(=O)O[C@H](COC(=O)CCCCCCCCCCCCCCC)COP(=O)([O-])OCC[N+](C)(C)C (stereo partly drawn) [Compound 7d]	259 ± 32.5	–	–	–	–	–	–	–	–	–	–	–	–	–	–
C=CC(C)(CC/C=C(\C)CCC=C(C)C)CC(=O)O (stereo not drawn) [2 (FARA), (E)-3,7,11-trimethyl-3-vinyldodeca-6,10-dienoic acid]	153 ± 20.1	91 ± 11.5	267 ± 15.5	99.2 ± 26	87 ± 14.4	162 ± 5.9	230 ± 40.3	0.88	–	–	–	–	–	–	–
CCCC=C1C(C)(C)CCCC1(C)CC(=O)O (stereo not drawn) [3 (DAA), 2-(2-butylidene-1,3,3-trimethylcyclohexyl)-acetic acid]	132 ± 52.7	150 ± 16.8	274 ± 12	173 ± 38.7	109 ± 16	231 ± 43.2	297 ± 14.4	0.63	–	–	–	–	–	–	–
CCCCCCCCCCCCCCCC(=O)OC[C@H](COP(=O)([O-])OCC[N+](C)(C)C)OC(=O)CCCCCCCCCCCCCCC [DPPC, reference compound]	–	–	–	–	–	–	–	–	179 ± 30.2	230 ± 31.3	–	274 ± 17.1	–	398 ± 194	48.8 ± 2.1
